Data as given in patent publication US8940766B2, “Methods for preventing and/or treating lysosomal storage disorders” (Amicus Therapeutics, Inc., priority 2009, dated 2015).
Changes are numbered by the printed parent chain.

Experiments:
[1] = target: T1, recombinant human GCase (rhGCase; Cerezyme®) (Homo sapiens, UniProt P04062, R534H); experiment: In vitro enzyme inhibition assay of rhGCase with 4-MU-β-D-Glc fluorogenic substrate; type: biochemical; settings: pH 5.2; average of three independent experiments
T1 construct: purchased Genzyme Corp
T1 sequence (P04062 40-536 R534H): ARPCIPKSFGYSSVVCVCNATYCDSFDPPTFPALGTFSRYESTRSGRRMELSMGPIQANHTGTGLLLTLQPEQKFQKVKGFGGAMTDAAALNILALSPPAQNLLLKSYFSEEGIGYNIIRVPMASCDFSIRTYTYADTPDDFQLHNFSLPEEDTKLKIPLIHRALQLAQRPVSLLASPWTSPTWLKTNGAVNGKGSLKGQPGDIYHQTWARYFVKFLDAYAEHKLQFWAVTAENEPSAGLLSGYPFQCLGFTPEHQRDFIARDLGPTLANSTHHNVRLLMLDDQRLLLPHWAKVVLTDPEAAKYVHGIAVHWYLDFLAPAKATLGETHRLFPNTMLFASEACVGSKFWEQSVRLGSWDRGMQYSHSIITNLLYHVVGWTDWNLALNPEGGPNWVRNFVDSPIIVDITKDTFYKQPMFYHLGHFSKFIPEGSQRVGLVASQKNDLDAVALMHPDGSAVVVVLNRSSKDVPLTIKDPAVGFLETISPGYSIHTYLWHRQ
Description: The binding affinity (defined here by Ki binding constant) of GCase for small molecule pharmacological chaperones described in this document were empirically determined using enzyme inhibition assays. In brief, the enzyme inhibition assays used monitored the ability of test compound to bind and prevent the hydrolysis of a fluorogenic substrate in a concentration-dependent manner. Specifically, the enzyme activity of recombinant human GCase (rhGCase; Cerezyme®, Genzyme Corp.) was measured using the 4-methylumbelliferyl-β-D-glucopyranoside (4-MU-β-D-Glc) fluorogenic substrate in the absence or in the presence of varying amounts of each test compound. […] The enzyme inhibition assays were performed at both pH 7.0 (endoplasmic reticulum pH) and at pH 5.2 (lysosomal pH) to gain insight into the binding affinity (i.e., potency) of compounds for GCase in the endoplasmic reticulum and lysososome.
Various concentrations of test compounds were prepared in buffer “M” consisting of 50 mM sodium phosphate buffer with 0.25% sodium taurocholate at pH 7.0 and pH 5.2. Enzyme (Cerezyme®, a recombinant form of the human enzyme β-glucocerebrosidase) was also diluted in the same buffer “M” at pH 7.0 and pH 5.2. […] Fluorescence was measured on a plate reader for 1 sec/well using 355 nm excitation and 460 nm emission.

GCase = target: T2, GCase (Homo sapiens, UniProt P04062); experiment: Concentration-dependent increase in GCase activity (EC50, Emax); type: cell-based; settings: result in words
T2 sequence (P04062 40-536): T1 sequence (P04062 40-536 R534H) with H495R

[2] = Blood brain barrier penetration after oral administration to mice; type: in vivo, mice (C57BL/6); settings: single 30 mg/kg (free base equivalent) p.o. dose, FIG. 2
Description: For this purpose, 8-week old wild-type male mice (C57BL/6) were administered a single 30 mg/kg (free base equivalent) p.o. dose of reference or test compound by gavage (n=3 mice per time point). Dosing solutions were prepared in water. After dosing, mice were euthanized with CO2 at the following time points: 0-, 0.5-, 1-, and 4-hour post-dose. […] Similarly, brains were collected from each mouse. Plasma was derived by spinning whole blood at 2700 g for 10 minutes at 4° C. followed by storage on dry ice. Whole brains were washed in cold PBS to remove contaminating blood, blotted dry, flash frozen on dry ice, and ultimately stored at −80° C. until analysis. To prepare brain samples for analysis, 50-100 mg of tissue was homogenized in […]. Samples were then clarified by centrifugation. Next, 25 μl of the brain homogenate supernatant or 25 μl of plasma were combined with 25 μl of acetonitrile:water (95/5). […] Between 20 and 30 μl sample was injected for analysis. […] When Compound B was analyzed, Compound A was used as internal standard (150.1/130.1). For calculating drug concentrations, raw data for plasma (ng/mL) and brain (ng/g) was converted to nM using the molecular weight of respective compounds and assuming 1 g of tissue is equivalent to 1 mL volume. Concentration as a function of time was plotted in GraphPad Prism version 4.02.

IC50 [1]: 73 ± 9 nM
Compound: O[C@@H]1[C@@H](CCl)CNC[C@H]1O [Compound B, (3R,4R,5S)-5-(chloromethyl)piperidine-3,4-diol]
effect on GCase activity (GCase): concentration-dependent increase in GCase activity
enhancement of enzyme activity compared to IFG-tartrate (GCase): enhanced enzyme activity to the same maximum level at much lower concentration
brain levels compared to Compound A [2]: even higher levels of Compound B were detected in brain than that observed following administration of the hydrochloride salt form of Compound A
